Marks after values point to notes of the source that are not given here.

For assay [1], the target named is T1, USP7 (Homo sapiens, UniProt Q93009).
T1 construct: USP7 catalytic domain (USP7CD) (208‐560); made in house
Kind of assay: Intact protein MS (UHPLC-ESI-MS), covalent modification of USP7. Format: binding. To be noted: 24 h incubation at 20°C, protein-to-compound ratio 1:31.25. As for the experimental part: The DSF results described above were validated by UHPLC‐ESI‐MS to verify possible covalent binding through a corresponding mass shift. Intact protein MS is an important screening method in irreversible‐covalent hit identification and is especially suitable for covalent fragment‐based drug discovery (FBDD). It allows for the identification of covalent binders by detecting covalent protein‐compound adducts, thus making use of the stability of the covalent bond.
USP7 was prepared in Tris buffer (25 mM Tris pH 8.0, 150 mM NaCl, 5 mM TCEP) with a protein‐to‐compound ratio of 1:31.25 and 5% (v/v) DMSO. The protein‐compound mixtures were all incubated at 20°C for 24 h on a rotating shaker. The analysis of intact protein mass was carried out using UHPLC‐ESI‐MS measurements, with data acquisition and data analysis as previously described.

Assay [2] concerns the target T2, USP7asoc (active site only cysteine) (Homo sapiens, UniProt Q93009, C300S/C315S/C334S/C478S/C488S/C510S).
T2 construct: (208‐560, C300/315/334/448/478/510S); made in house
Kind of assay: Differential scanning fluorimetry (DSF), melting temperature shift of USP7asoc mutant. Format: binding. The note with it: for ∆T m ± SD USP7asoc: 8 µM protein, 250 µM compound (1:31.25).

T1 sequence (Q93009 with tags, fused parts or gaps): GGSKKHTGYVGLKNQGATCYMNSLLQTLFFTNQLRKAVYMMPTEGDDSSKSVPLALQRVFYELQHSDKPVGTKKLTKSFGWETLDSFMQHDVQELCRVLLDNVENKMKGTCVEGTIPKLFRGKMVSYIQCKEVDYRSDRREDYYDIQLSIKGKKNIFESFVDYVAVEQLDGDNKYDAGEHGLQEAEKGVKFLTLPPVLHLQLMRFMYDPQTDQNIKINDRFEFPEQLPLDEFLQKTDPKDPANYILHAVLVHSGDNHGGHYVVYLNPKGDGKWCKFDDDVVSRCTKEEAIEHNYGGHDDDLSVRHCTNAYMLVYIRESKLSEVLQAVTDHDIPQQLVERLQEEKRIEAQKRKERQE
T2 sequence (Q93009 with tags, fused parts or gaps C300S/C315S/C334S/C478S/C488S/C510S): as the sequence (Q93009 with tags, fused parts or gaps) above, with C96S, C111S, C130S, C274S, C284S, C306S counted along it

Consider `O=[N+]([O-])c1ccc(F)nc1Nc1cc2c(-c3ccc(-c4ccncc4)cc3)cccc2cn1` [7i, N‐(6‐Fluoro‐3‐nitropyridin‐2‐yl)‐5‐[4‐(pyridin‐4‐yl)phenyl]isoquinolin‐3‐amine], for which, in assay [1], the “protein species in deconvoluted mass spectrum of USP7” value (shortened to “protein species”) was “unmodified USP7 and USP7asoc as the main peak”. Besides, the entries for the “∆T m ± SD USP7asoc” value in assay [2] (30 min incubation at 20°C), in assay [2] (4 h incubation at 20°C) and in assay [2] (24 h incubation at 20°C) were “–0.30 ± 0.12 °C”, “–0.15 ± 0 °C” and 0.05 ± 0.17 °C, respectively.

On to `Cn1ccc(-c2cccc3cnc(Nc4nc(F)ccc4[N+](=O)[O-])cc23)c1` [7b, N‐(6‐Fluoro‐3‐nitropyridin‐2‐yl)‐5‐(1‐methyl‐1H‐pyrrol‐3‐yl)isoquinolin‐3‐amine], for which the “protein species” value in assay [1] is “unmodified protein species as a main peak for both USP7 and USP7asoc”. The “∆T m ± SD USP7asoc” value was 0.05 ± 0.09 °C in assay [2] (30 min incubation at 20°C), 0.45 ± 0.12 °C in assay [2] (4 h incubation at 20°C) and 0.38 ± 0.06 °C in assay [2] (24 h incubation at 20°C).

Regarding `CCCn1cc(-c2cccc3cnc(Nc4nc(F)ccc4[N+](=O)[O-])cc23)cn1` [7d, N‐(6‐Fluoro‐3‐nitropyridin‐2‐yl)‐5‐(1‐propyl‐1H‐pyrazol‐4‐yl)isoquinolin‐3‐amine], in assay [1], the “protein species” value is “single modified protein as the main signal”. In addition, the “∆T m ± SD USP7asoc” value came out at 0.00 ± 0 °C in assay [2] (30 min incubation at 20°C), 0.03 ± 0.08 °C in assay [2] (4 h incubation at 20°C) and 0.35 ± 0.06 °C in assay [2] (24 h incubation at 20°C).

For `CCn1cc(-c2cccc3cnc(Nc4nc(F)ccc4[N+](=O)[O-])cc23)cn1` [7c, 5‐(1‐Ethyl‐1H‐pyrazol‐4‐yl)‐N‐(6‐fluoro‐3‐nitropyridin‐2‐yl)isoquinolin‐3‐amine], in assay [1], the “protein species” value is “mainly showed the attachment of a single molecule to USP7 and USP7asoc”. The “∆T m ± SD USP7asoc” value in assay [2] (30 min incubation at 20°C) was “–0.25 ± 0.23 °C”; in assay [2] (4 h incubation at 20°C), 0.20 ± 0.09 °C; in assay [2] (24 h incubation at 20°C), 0.23 ± 0.08 ^b °C.

In the case of `O=[N+]([O-])c1ccc(F)nc1Nc1cc2c(-c3cnn(C4CC4)c3)cccc2cn1` [7e, 5‐(1‐Cyclopropyl‐1H‐pyrazol‐4‐yl)‐N‐(6‐fluoro‐3‐nitropyridin‐2‐yl)isoquinolin‐3‐amine], in assay [1], the “protein species” value is “mono‐arylated USP7 and USP7asoc species as main peaks”. Moreover, the “∆T m ± SD USP7asoc” value in assay [2] (30 min incubation at 20°C) was “–0.35 ± 0.09 °C”; in assay [2] (4 h incubation at 20°C) it was “–0.13 ± 0.04 °C”; in assay [2] (24 h incubation at 20°C), 0.40 ± 0.09 ^b °C. Further, the “∆T m of small shoulder (second smaller peak) of the melting curve of USP7asoc” value in assay [2] (24 h incubation, 250 µM compound) is “about –5 °C”.

These data come from publication PMC12336439 (Archiv Der Pharmazie, 2025).
